Read-outs that look alike come from different tables or passages of the source.
Key:
[1] = molecular target: T1, human TLR7 (Homo sapiens, UniProt Q9NYK1); assay: Human TLR7 agonist activity reporter assay (HEK-Blue TLR7 cells, SEAP reporter); type: cell-based; details: 18 h treatment
T1 construct: host or cells: HEK-Blue TLR7 cells (engineered human embryonic kidney cells)
T1 sequence (Q9NYK1 27-1049): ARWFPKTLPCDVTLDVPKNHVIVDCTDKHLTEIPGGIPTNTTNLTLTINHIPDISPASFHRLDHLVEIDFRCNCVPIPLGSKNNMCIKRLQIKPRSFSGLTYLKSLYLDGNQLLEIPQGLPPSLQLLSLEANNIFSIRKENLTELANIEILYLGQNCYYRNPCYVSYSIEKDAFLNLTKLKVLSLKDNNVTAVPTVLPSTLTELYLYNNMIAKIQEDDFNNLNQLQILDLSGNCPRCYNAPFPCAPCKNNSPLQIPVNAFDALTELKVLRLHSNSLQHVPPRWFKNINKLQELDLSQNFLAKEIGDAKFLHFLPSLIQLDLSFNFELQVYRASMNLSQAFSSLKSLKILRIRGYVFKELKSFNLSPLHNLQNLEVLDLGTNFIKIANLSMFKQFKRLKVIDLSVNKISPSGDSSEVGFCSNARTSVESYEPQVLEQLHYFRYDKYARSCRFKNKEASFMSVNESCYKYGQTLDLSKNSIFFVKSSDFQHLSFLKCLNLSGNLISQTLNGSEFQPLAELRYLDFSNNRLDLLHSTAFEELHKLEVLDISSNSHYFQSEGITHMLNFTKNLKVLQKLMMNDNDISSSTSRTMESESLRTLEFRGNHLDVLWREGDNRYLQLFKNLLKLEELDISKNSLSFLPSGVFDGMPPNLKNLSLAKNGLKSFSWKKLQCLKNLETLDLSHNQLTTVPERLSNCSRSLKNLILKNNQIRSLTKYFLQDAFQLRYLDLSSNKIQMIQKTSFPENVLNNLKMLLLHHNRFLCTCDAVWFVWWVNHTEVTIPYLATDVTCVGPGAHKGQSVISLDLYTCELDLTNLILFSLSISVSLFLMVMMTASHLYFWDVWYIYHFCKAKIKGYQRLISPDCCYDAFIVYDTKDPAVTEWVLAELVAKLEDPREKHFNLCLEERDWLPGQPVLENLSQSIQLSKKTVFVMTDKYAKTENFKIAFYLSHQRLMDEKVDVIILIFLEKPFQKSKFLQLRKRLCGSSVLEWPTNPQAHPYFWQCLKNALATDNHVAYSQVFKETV
Description: This procedure describes a method for assaying human TLR7 (hTLR7) agonist activity of the compounds disclosed in this specification.
HEK-Blue™ TLR7 cells were added to each well of a 384-well tissue-culture plate (15,000 cells per well) and incubated 16-18 h at 37° C., 5% CO2. Compounds (100 nl) were dispensed into wells containing the HEK-Blue™ TLR cells and the treated cells were incubated at 37° C., 5% CO2. After 18 h treatment ten microliters of freshly-prepared Quanti-Blue™ reagent (Invivogen) was added to each well, incubated for 30 min (37° C., 5% CO2) and SEAP levels measured using an Envision plate reader (OD=620 nm). The half maximal effective concentration values (EC50; compound concentration which induced a response halfway between the assay baseline and maximum) were calculated.

[2] = system: CD69; assay: Induction of CD69 in human whole blood; type: cell-based; details: 17 h, CD69 surface staining, 100% set to 1 uM resiquimod
Description: The induction of Type I interferon (IFN) MX-1 genes and the B-cell activation marker CD69 are downstream events that occur upon activation of the TLR7 pathway. The following is a human whole blood assay that measures their induction in response to a TLR7 agonist.
Heparinized human whole blood was harvested from human subjects and treated with test TLR7 agonist compounds at 1 mM. The blood was diluted with RPMI 1640 media and Echo was used to predot 10 nL per well giving a final concentration of 1 uM (10 nL in 10 uL of blood). After mixing on a shaker for 30 sec, the plates were covered and placed in a 37° C. chamber for o/n=17 hrs. Fixing/lysis buffer was prepared (5×->1× in H2O, warm at 37° C.; Cat #BD 558049) and kept the perm buffer (on ice) for later use.
For surface markers staining (CD69): prepared surface Abs: 0.045 ul hCD14-FITC (ThermoFisher Cat #MHCD1401)+0.6 ul hCD19-ef450 (ThermoFisher Cat #48-0198-42)+1.5 ul hCD69-PE (cat #BD555531)+0.855 ul FACS buffer. Added 3 ul/well, spin1000 rpm for 1 min and mixed on shaker for 30 sec, put on ice for 30 mins. Stop stimulation after 30 minutes with 70 uL of prewarmed 1× fix/lysis buffer and use Feliex mate to resuspend (15 times, change tips for each plate) and incubate at 37C for 10 minutes.
Centrifuge at 2000 rpm for 5 minutes aspirate with HCS plate washer, mix on shaker for 30 sec and then wash with 70 uL in dPBS and pelleted 2×s (2000 rpm for 5 min) and 50 ul wash in FACS buffer pelleted 1×s(2000 rpm for 5 min). Mix on shaker for 30 sec. For Intracellular markers staining (MX-1): Add 50 ul of BD Perm buffer III and mix on shaker for 30 sec. Incubate on ice for 30 minutes (in the dark). Wash with 50 uL of FACS buffer 2× (spin @2300 rpm×5 min after perm) followed by mixing on shaker for 30 sec. Resuspended in 20 ul of FACS buffer containing MX1 antibody ( ) (4812)-Alexa 647: Novus Biologicals #NBP2-43704AF647) 20 ul FACS bf+0.8 ul hlgG+0.04 ul MX-1. Spin 1000 rpm for 1 min, mix on shaker for 30se and the samples were incubated at RT in the dark for 45 minutes followed by washing 2×FACS buffer (spin @2300 rpm×5 min after perm). Resuspend 20 ul (35 uL total per well) of FACS buffer and cover with foil and place in 4° C. to read the following day. Plates were read on iQuePlus. The results were loaded into toolset and IC50 curves are generated in curve master. The y-axis 100% is set to 1 uM of resiquimod.

[3] = average where assay repeated, Table A1, read-out: hTLR7 Agonism EC50
[4] = average where assay repeated, Table A1, read-out: hWB CD69 EC50
[5] = Table A2, read-out: hTLR7 Agonism EC50
[6] = Table A2, read-out: hWB CD69 EC50

Question: For CCC[C@@H](CCO)Nc1nc(N)nc2cnn(Cc3cc(C(=O)N[C@@H]4CCN(C)C4)ccc3OC)c12 [Compound 154, 3-[(5-amino-7-{[(3S)-1-hydroxyhexan-3-yl]amino}-1H-pyrazolo[4,3-d]pyrimidin-1-yl)methyl]-4-methoxy-N-[(3R)-1-methylpyrrolidin-3-yl] benzamide], which EC50 [1, 3] is on record?
Answer: 280 nM

Question: What about the EC50 [2, 4] of the same compound?
Answer: 144 nM

Question: Which results are given for CCCCNc1nc(N)nc2cnn(Cc3cc(CN(C)C(=O)CCOC)ccc3OC)c12 [Compound 146, N-[(3-{[5-amino-7-(butyl-amino)-1H-pyrazolo[4,3-d]pyrimidin-1-yl]methyl}-4-methoxyphenyl)methyl]-3-methoxy-N-methylpropanamide]?
Answer: EC50 [1, 3]: 499 nM; EC50 [2, 4]: ≥ 1000 nM

Question: Which results are given for CCCCNc1nc(N)nc2cnn(Cc3cc(CNC4CC4)ccc3OC)c12 [Compound 121]?
Answer: EC50 [1, 3]: 116 nM; EC50 [2, 4]: 56.9 nM

Question: Which results are given for CCC[C@@H](CCO)Nc1nc(N)nc2cnn(Cc3nc(CO)ccc3OC)c12 [Compound 174, (3S)-3-[(5-amino-1-{[6-(hydroxyl-methyl)-3-methoxypyridin-2-yl]methyl}-1H-pyrazolo[4,3-d]pyrimidin-7-yl)amino]hexan-1-ol]?
Answer: EC50 [1, 5]: 96.1 nM; EC50 [2, 6]: 41.4 nM

Question: With CC[C@@H](CCO)Nc1nc(N)nc2cnn(Cc3cc(CN4CCN(C)CC4)ccc3OC)c12 [Compound 163, (3S)-3-{[5-amino-1-({2-methoxy-5-[(4-methylpiperazin-1-yl)methyl]phenyl}methyl)-1H-pyrazolo[43-d]pyrimidin-7-yl]amino}pentan-l-ol] as the compound, how does the EC50 [1, 3] read?
Answer: 267 nM

Question: What about the EC50 [2, 4] of the same compound?
Answer: 119 nM

Question: How did the EC50 [1, 3] turn out when CCCCNc1nc(N)nc2cnn(Cc3cc(CN4CC5(C4)CN(C(=O)C4CCC4)C5)ccc3OC)c12 [Compound 125, N7-butyl-1-{[5-({6-cyclobutanecarbonyl-2,6-diazaspiro[3.3]heptan-2-yl}methyl)-2-methoxy-phenyl]methyl}-1H-pyrazolo[4,3-d]pyrimidine-5,7-diamine] was run?
Answer: 191 nM

Question: And the EC50 [2, 4]?
Answer: 369 nM

Question: CCCCNc1nc(N)nc2cnn(Cc3cc(CN4CC(OC)C4)ccc3OC)c12 [Compound 105, N7-butyl-1-({2-methoxy-5-[(3-methoxyazetidin-1-yl)methyl]phenyl}methyl)-1H-pyrazolo[4,3-d]pyrimidine-5,7-diamine] was tested. Which EC50 [1, 3] did it give?
Answer: 124 nM

Question: What about the EC50 [2, 4] of the same compound?
Answer: 90.9 nM

Question: Which results are given for CCCCNc1nc(N)nc2cnn(Cc3cc(COCCCO)ccc3OC)c12 [Compound 143, 3-[(3-{[5-amino-7-(butyl-amino)-1H-pyrazolo[4,3-d]pyrimidin-1-yl]methyl}-4-methoxyphenyl)-methoxy]propan-1-ol]?
Answer: EC50 [1, 3]: 424 nM; EC50 [2, 4]: 725 nM

Question: CCCCNc1nc(N)nc2cnn(Cc3cc(COC4COC4)ccc3OC)c12 [Compound 141, N7-butyl-1-({2-methoxy-5-[(oxetan-3-yloxy)me-thyl]phenyl}methyl)-1H-pyrazolo[4,3-d]pyrimidine-5,7-diamine] was tested. Which EC50 [1, 3] did it give?
Answer: 498 nM

Question: And the EC50 [2, 4]?
Answer: 831 nM

Question: Which results are given for CCC[C@@H](CCO)Nc1nc(N)nc2cnn(Cc3cc(CN4C[C@H]5C[C@@H]4CN5CCO)c(F)cc3OC)c12 [Compound 175, (3S)-3-({5-amino-1-[(4-fluoro-5-{[(1R,4R)-5-(2-hydroxyethyl)-2,5-diazabicyclo[2.2.1]heptan-2-yl]methyl}-2-methoxyphenyl)-methyl]-1H-pyrazolo[4,3-d]pyrimidin-7-yl}amino)hexan-1-ol]?
Answer: EC50 [1, 5]: 204 nM; EC50 [2, 6]: 77 nM

Question: How did the EC50 [1, 5] turn out when CCC[C@@H](CCO)Nc1nc(N)nc2cnn(Cc3cc(CNCCO)c(F)cc3OC)c12 [Compound 172, (3S)-3-({5-amino-1-[(4-fluoro-5-{[(2-hydroxyethyl)amino]methyl}-2-methoxyphenyl)methyl]-1H-pyrazolo[4,3-d]pyrimidin-7-yl}amino)hexan-1-ol] was run?
Answer: 167 nM

Question: And the EC50 [2, 6]?
Answer: 29.8 nM

Question: For CCCCNc1nc(N)nc2cnn(Cc3cc(CNC4CC45CC5)ccc3OC)c12 (stereo not drawn) [Compound 117, N7-butyl-1-({2-methoxy-5-[({spiro[2.2]pentan-1-yl}amino)methyl]phenyl}methyl)-1H-pyrazolo[4,3-d]pyrimidine-5,7-diamine], which EC50 [1, 3] is on record?
Answer: 562 nM

Question: And the EC50 [2, 4]?
Answer: 156 nM

Source: US20230118688A1, “1H-PYRAZOLO[4,3-d]PYRIMIDINE COMPOUNDS AS TOLL-LIKE RECEPTOR 7 (TLR7) AGONISTS” (BRISTOL-MYERS SQUIBB COMPANY, priority 2020, published 2023)
